# Assay results: ChEMBL document CHEMBL1150977, “A quantitative analysis of kinase inhibitor selectivity” (Nat Biotechnol, 2008)
# Target: Tyrosine-protein kinase Fgr (Homo sapiens, UniProt P09769)
# Sequence (P09769 whole entry): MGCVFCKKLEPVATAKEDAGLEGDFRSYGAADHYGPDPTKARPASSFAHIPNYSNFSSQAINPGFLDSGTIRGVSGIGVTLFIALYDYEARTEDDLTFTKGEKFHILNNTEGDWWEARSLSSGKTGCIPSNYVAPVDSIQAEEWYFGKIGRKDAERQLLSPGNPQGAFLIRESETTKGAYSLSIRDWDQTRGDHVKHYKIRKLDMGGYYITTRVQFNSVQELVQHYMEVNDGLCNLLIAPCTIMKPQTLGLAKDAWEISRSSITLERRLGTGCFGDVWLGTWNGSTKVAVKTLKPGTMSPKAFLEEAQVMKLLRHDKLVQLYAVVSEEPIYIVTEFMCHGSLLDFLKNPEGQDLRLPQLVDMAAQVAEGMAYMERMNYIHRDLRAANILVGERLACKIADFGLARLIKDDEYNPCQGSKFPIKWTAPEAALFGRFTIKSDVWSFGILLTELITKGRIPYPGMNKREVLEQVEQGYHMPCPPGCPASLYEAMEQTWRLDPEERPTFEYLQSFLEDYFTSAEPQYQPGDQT
row,Compound,Kd [µM]
1,CCOc1cc2ncc(C#N)c(Nc3ccc(F)c(Cl)c3)c2cc1NC(=O)/C=C/CN(C)C [PELITINIB],0.95
2,Oc1ccc(-c2nc(-c3ccncc3)c(-c3ccc(F)cc3)[nH]2)cc1 [SB-202190],> 10

# Target: Platelet-derived growth factor receptor alpha (Homo sapiens, UniProt P16234)
# Sequence (P16234 whole entry): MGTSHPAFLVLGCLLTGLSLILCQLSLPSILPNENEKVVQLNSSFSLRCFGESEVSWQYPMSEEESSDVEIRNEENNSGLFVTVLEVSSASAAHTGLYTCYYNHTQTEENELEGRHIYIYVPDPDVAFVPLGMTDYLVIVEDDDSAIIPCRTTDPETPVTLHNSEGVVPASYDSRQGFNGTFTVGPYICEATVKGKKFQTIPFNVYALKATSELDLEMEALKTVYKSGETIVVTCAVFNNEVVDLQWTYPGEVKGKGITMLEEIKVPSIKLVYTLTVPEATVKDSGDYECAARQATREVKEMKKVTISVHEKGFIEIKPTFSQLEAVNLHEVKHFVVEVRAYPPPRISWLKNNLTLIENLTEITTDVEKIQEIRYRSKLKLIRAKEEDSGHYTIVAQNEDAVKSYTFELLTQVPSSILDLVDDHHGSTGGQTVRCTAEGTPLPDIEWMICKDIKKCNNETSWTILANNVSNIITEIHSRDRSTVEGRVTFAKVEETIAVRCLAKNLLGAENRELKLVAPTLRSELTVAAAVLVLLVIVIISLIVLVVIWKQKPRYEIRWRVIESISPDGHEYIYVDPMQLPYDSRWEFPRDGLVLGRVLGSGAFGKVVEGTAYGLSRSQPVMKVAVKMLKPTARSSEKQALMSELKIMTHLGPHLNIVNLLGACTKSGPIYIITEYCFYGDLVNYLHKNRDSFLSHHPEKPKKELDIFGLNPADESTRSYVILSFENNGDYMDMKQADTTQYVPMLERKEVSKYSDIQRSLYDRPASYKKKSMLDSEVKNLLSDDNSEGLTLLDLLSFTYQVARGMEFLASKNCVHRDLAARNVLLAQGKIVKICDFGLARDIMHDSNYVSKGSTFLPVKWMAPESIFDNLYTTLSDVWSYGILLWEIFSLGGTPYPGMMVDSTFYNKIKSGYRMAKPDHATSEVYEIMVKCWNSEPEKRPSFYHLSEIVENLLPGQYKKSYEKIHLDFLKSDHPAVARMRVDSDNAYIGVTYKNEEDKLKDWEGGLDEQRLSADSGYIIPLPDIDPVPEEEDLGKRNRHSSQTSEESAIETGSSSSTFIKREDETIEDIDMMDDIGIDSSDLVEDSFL
row,Compound,Kd [µM]
1,CCOc1cc2ncc(C#N)c(Nc3ccc(F)c(Cl)c3)c2cc1NC(=O)/C=C/CN(C)C [PELITINIB],> 10
2,Oc1ccc(-c2nc(-c3ccncc3)c(-c3ccc(F)cc3)[nH]2)cc1 [SB-202190],> 10

# Target: Tyrosine-protein kinase Lyn (Homo sapiens, UniProt P07948)
row,Compound,Kd [µM]
1,CCOc1cc2ncc(C#N)c(Nc3ccc(F)c(Cl)c3)c2cc1NC(=O)/C=C/CN(C)C [PELITINIB],0.72
2,Oc1ccc(-c2nc(-c3ccncc3)c(-c3ccc(F)cc3)[nH]2)cc1 [SB-202190],> 10

# Target: Mitogen-activated protein kinase kinase kinase kinase 4 (Homo sapiens, UniProt O95819)
row,Compound,Kd [µM]
1,Oc1ccc(-c2nc(-c3ccncc3)c(-c3ccc(F)cc3)[nH]2)cc1 [SB-202190],> 10

# Target: MAP kinase-interacting serine/threonine-protein kinase 2 (Homo sapiens, UniProt Q9HBH9)
row,Compound,Kd [µM]
1,CCOc1cc2ncc(C#N)c(Nc3ccc(F)c(Cl)c3)c2cc1NC(=O)/C=C/CN(C)C [PELITINIB],> 10
2,Oc1ccc(-c2nc(-c3ccncc3)c(-c3ccc(F)cc3)[nH]2)cc1 [SB-202190],> 10

# Target: Myosin light chain kinase, smooth muscle (Homo sapiens, UniProt Q15746)
# Sequence (Q15746 whole entry): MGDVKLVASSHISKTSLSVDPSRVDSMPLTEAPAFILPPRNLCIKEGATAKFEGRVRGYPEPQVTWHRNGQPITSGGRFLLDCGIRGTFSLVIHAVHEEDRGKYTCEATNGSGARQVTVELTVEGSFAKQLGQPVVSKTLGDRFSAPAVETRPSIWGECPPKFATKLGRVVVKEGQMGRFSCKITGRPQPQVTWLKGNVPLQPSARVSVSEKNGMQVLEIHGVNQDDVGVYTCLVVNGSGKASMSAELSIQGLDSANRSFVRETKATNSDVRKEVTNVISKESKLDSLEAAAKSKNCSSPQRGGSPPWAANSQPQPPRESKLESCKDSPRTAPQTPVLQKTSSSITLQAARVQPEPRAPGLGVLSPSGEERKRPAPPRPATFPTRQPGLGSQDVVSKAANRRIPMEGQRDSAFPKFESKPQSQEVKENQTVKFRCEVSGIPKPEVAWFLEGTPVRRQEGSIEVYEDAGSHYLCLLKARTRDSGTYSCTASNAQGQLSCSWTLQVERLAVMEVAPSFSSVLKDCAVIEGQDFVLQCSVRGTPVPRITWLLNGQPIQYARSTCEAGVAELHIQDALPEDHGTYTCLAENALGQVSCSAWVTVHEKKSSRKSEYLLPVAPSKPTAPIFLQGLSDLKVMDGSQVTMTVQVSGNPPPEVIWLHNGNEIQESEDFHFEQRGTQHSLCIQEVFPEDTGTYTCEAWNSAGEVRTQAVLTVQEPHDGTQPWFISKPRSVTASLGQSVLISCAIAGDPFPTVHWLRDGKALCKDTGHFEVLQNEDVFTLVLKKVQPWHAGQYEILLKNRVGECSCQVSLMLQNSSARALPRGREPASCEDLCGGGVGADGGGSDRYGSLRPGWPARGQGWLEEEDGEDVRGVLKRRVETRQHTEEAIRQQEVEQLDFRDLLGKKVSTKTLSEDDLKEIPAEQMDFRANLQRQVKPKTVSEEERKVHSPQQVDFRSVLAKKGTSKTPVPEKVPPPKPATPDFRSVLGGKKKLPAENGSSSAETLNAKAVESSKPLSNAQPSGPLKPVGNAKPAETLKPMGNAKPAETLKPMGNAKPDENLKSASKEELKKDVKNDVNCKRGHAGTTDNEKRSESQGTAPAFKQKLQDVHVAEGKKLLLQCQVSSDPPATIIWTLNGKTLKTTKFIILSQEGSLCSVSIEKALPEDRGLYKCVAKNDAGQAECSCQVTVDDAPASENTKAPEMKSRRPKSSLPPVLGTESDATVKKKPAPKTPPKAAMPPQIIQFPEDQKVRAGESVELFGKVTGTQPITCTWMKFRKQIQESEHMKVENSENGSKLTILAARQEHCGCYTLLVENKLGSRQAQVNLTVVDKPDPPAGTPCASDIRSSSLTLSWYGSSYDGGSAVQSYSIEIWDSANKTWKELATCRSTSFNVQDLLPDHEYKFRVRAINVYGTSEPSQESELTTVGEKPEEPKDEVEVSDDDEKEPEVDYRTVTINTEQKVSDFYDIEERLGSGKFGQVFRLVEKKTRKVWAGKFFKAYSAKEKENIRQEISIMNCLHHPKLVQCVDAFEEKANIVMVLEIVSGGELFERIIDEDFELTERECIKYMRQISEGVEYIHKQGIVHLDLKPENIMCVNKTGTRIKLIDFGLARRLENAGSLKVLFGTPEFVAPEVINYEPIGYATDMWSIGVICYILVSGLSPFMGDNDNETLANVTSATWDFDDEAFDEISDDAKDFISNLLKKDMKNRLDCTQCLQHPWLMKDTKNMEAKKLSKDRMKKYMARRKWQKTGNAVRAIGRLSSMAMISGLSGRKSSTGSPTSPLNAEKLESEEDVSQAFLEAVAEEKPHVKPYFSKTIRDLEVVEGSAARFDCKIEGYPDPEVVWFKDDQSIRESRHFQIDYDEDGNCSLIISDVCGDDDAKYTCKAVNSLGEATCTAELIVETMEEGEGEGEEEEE
row,Compound,Kd [µM]
1,CCOc1cc2ncc(C#N)c(Nc3ccc(F)c(Cl)c3)c2cc1NC(=O)/C=C/CN(C)C [PELITINIB],> 10
2,Oc1ccc(-c2nc(-c3ccncc3)c(-c3ccc(F)cc3)[nH]2)cc1 [SB-202190],> 10

# Target: Tyrosine-protein kinase Yes (Homo sapiens, UniProt P07947)
row,Compound,Kd [µM]
1,CCOc1cc2ncc(C#N)c(Nc3ccc(F)c(Cl)c3)c2cc1NC(=O)/C=C/CN(C)C [PELITINIB],1.1
2,Oc1ccc(-c2nc(-c3ccncc3)c(-c3ccc(F)cc3)[nH]2)cc1 [SB-202190],> 10

# Target: Serine/threonine-protein kinase 25 (Homo sapiens, UniProt O00506)
row,Compound,Kd [µM]
1,Oc1ccc(-c2nc(-c3ccncc3)c(-c3ccc(F)cc3)[nH]2)cc1 [SB-202190],> 10

# Target: T1, Activin receptor type-1B (Homo sapiens, UniProt P36896)
# T1 sequence (P36896 whole entry): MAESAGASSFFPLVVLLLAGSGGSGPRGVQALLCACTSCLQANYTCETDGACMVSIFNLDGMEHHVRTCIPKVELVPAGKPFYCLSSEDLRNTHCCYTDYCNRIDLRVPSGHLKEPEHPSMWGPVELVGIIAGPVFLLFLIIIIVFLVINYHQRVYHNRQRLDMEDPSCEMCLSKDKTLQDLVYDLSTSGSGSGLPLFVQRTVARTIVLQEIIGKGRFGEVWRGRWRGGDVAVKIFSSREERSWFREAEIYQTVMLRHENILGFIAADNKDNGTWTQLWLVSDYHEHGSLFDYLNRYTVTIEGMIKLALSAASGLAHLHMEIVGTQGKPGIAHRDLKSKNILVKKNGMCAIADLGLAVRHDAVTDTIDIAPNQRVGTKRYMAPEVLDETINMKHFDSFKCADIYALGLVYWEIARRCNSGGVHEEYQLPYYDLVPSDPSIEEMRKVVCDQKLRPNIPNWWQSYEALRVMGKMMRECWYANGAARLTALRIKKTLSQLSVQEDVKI
row,Compound,Kd [µM]
1,CCOc1cc2ncc(C#N)c(Nc3ccc(F)c(Cl)c3)c2cc1NC(=O)/C=C/CN(C)C [PELITINIB],> 10
2,Oc1ccc(-c2nc(-c3ccncc3)c(-c3ccc(F)cc3)[nH]2)cc1 [SB-202190],0.95

# Target: T2, Serine/threonine-protein kinase STK11 (Homo sapiens, UniProt Q15831)
# T2 sequence (Q15831 whole entry): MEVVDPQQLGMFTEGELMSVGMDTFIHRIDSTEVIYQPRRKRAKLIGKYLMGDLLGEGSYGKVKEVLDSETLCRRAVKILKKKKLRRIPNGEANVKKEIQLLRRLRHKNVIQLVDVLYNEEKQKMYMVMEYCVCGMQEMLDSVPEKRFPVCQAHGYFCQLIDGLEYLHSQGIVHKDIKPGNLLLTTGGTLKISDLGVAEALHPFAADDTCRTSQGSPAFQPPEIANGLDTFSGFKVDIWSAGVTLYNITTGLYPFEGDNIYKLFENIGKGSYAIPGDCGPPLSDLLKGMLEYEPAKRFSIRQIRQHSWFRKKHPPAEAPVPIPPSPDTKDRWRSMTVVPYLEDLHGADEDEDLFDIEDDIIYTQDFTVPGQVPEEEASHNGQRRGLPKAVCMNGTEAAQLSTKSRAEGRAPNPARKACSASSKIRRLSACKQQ
row,Compound,Kd [µM]
1,CCOc1cc2ncc(C#N)c(Nc3ccc(F)c(Cl)c3)c2cc1NC(=O)/C=C/CN(C)C [PELITINIB],> 10
2,Oc1ccc(-c2nc(-c3ccncc3)c(-c3ccc(F)cc3)[nH]2)cc1 [SB-202190],> 10

# Target: Activated CDC42 kinase 1 (Homo sapiens, UniProt Q07912)
# Sequence (Q07912 whole entry): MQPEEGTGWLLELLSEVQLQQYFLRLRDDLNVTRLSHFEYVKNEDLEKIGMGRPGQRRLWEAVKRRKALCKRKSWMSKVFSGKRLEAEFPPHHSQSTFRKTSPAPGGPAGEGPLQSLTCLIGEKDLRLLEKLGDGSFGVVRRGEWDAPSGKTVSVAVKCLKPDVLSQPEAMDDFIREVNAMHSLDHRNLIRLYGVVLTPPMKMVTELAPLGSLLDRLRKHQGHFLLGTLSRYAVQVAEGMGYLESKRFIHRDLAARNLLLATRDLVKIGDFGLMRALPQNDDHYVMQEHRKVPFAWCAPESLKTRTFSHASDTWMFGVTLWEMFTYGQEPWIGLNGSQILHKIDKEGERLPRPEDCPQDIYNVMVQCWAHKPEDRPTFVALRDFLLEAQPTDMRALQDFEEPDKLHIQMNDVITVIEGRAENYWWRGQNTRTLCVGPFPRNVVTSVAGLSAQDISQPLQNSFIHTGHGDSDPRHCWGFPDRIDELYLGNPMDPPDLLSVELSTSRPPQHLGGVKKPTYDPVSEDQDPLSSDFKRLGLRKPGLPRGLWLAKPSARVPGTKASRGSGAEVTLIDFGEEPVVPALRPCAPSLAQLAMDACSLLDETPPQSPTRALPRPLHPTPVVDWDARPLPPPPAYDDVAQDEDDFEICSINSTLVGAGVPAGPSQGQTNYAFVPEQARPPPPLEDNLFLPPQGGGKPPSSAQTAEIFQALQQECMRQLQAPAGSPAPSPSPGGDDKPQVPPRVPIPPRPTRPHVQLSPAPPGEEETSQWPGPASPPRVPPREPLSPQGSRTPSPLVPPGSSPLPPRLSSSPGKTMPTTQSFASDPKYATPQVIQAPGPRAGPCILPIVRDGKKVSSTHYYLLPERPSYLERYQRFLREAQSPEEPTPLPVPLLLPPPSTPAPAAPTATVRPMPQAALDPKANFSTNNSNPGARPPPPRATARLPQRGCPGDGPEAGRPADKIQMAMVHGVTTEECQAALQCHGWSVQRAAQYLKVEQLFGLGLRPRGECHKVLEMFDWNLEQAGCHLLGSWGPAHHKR
row,Compound,Kd [µM]
1,CCOc1cc2ncc(C#N)c(Nc3ccc(F)c(Cl)c3)c2cc1NC(=O)/C=C/CN(C)C [PELITINIB],5.2
2,Oc1ccc(-c2nc(-c3ccncc3)c(-c3ccc(F)cc3)[nH]2)cc1 [SB-202190],> 10

# Target: Ribosomal protein S6 kinase alpha-5 (Homo sapiens, UniProt O75582)
row,Compound,Kd [µM]
1,CCOc1cc2ncc(C#N)c(Nc3ccc(F)c(Cl)c3)c2cc1NC(=O)/C=C/CN(C)C [PELITINIB],> 10
2,Oc1ccc(-c2nc(-c3ccncc3)c(-c3ccc(F)cc3)[nH]2)cc1 [SB-202190],> 10

# Target: Dual specificity mitogen-activated protein kinase kinase 2 (Homo sapiens, UniProt P36507)
row,Compound,Kd [µM]
1,Oc1ccc(-c2nc(-c3ccncc3)c(-c3ccc(F)cc3)[nH]2)cc1 [SB-202190],9.6

# Target: T3, Membrane-associated tyrosine- and threonine-specific cdc2-inhibitory kinase (Homo sapiens, UniProt Q99640)
# T3 sequence (Q99640 whole entry): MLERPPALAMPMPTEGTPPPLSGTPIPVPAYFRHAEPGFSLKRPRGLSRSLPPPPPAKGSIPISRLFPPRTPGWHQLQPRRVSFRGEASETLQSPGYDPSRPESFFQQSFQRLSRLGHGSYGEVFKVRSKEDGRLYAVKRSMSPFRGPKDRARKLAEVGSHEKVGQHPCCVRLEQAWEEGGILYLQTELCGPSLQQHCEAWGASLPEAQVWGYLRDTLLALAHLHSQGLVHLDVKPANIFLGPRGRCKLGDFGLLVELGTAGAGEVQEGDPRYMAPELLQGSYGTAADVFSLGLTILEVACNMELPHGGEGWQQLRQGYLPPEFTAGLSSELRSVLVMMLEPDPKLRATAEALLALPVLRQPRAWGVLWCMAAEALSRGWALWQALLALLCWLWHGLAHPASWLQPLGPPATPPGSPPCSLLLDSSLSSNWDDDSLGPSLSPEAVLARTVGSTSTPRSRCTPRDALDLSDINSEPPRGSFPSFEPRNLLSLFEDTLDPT
row,Compound,Kd [µM]
1,CCOc1cc2ncc(C#N)c(Nc3ccc(F)c(Cl)c3)c2cc1NC(=O)/C=C/CN(C)C [PELITINIB],2.9
2,Oc1ccc(-c2nc(-c3ccncc3)c(-c3ccc(F)cc3)[nH]2)cc1 [SB-202190],> 10

# Target: Serine/threonine-protein kinase pim-2 (Homo sapiens, UniProt Q9P1W9)
# Sequence (Q9P1W9 whole entry): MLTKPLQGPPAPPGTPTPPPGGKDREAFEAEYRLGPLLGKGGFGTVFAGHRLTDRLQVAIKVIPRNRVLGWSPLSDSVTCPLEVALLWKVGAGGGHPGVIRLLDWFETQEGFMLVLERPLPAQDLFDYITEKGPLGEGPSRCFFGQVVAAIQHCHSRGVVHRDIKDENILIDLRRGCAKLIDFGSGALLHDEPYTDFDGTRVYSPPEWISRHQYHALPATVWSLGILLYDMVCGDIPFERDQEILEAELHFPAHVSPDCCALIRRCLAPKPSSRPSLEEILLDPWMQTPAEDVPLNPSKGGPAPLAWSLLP
row,Compound,Kd [µM]
1,CCOc1cc2ncc(C#N)c(Nc3ccc(F)c(Cl)c3)c2cc1NC(=O)/C=C/CN(C)C [PELITINIB],> 10
2,Oc1ccc(-c2nc(-c3ccncc3)c(-c3ccc(F)cc3)[nH]2)cc1 [SB-202190],> 10

# Target: Ribosomal protein S6 kinase alpha-4 (Homo sapiens, UniProt O75676)
row,Compound,Kd [µM]
1,CCOc1cc2ncc(C#N)c(Nc3ccc(F)c(Cl)c3)c2cc1NC(=O)/C=C/CN(C)C [PELITINIB],> 10
2,Oc1ccc(-c2nc(-c3ccncc3)c(-c3ccc(F)cc3)[nH]2)cc1 [SB-202190],> 10

# Target: Interferon-induced, double-stranded RNA-activated protein kinase (Homo sapiens, UniProt P19525)
row,Compound,Kd [µM]
1,CCOc1cc2ncc(C#N)c(Nc3ccc(F)c(Cl)c3)c2cc1NC(=O)/C=C/CN(C)C [PELITINIB],1.9
2,Oc1ccc(-c2nc(-c3ccncc3)c(-c3ccc(F)cc3)[nH]2)cc1 [SB-202190],> 10

# Target: Calcium/calmodulin-dependent protein kinase kinase 2 (Homo sapiens, UniProt Q96RR4)
row,Compound,Kd [µM]
1,Oc1ccc(-c2nc(-c3ccncc3)c(-c3ccc(F)cc3)[nH]2)cc1 [SB-202190],> 10

# Target: Fibroblast growth factor receptor 4 (Homo sapiens, UniProt P22455)
row,Compound,Kd [µM]
1,CCOc1cc2ncc(C#N)c(Nc3ccc(F)c(Cl)c3)c2cc1NC(=O)/C=C/CN(C)C [PELITINIB],> 10
2,Oc1ccc(-c2nc(-c3ccncc3)c(-c3ccc(F)cc3)[nH]2)cc1 [SB-202190],> 10

# Target: Tyrosine-protein kinase JAK2 (Homo sapiens, UniProt O60674)
row,Compound,Kd [µM]
1,CCOc1cc2ncc(C#N)c(Nc3ccc(F)c(Cl)c3)c2cc1NC(=O)/C=C/CN(C)C [PELITINIB],> 10
2,Oc1ccc(-c2nc(-c3ccncc3)c(-c3ccc(F)cc3)[nH]2)cc1 [SB-202190],> 10
